Row | SMILES | logP
1 | Clc1ccc(Oc2ccccc2Cl)cc1 | 5.03
2 | Clc1cc(Cl)c(Cl)c(Oc2cc(Cl)c(Cl)cc2Cl)c1 | 6.76
3 | Clc1ccc(Oc2ccccc2)c(Cl)c1Cl | 5.55
4 | Clc1ccccc1Oc1ccccc1 | 4.45
5 | Clc1ccc(Oc2c(Cl)c(Cl)c(Cl)c(Cl)c2Cl)cc1 | 6.95
6 | Clc1ccc(Oc2cc(Cl)c(Cl)c(Cl)c2Cl)cc1 | 6.61
7 | Clc1ccc(Oc2c(Cl)c(Cl)c(Cl)c(Cl)c2Cl)c(Cl)c1Cl | 7.84
8 | Clc1cc(Cl)c(Oc2c(Cl)c(Cl)cc(Cl)c2Cl)cc1Cl | 7.13
9 | Clc1cc(Cl)cc(Oc2cc(Cl)c(Cl)cc2Cl)c1 | 6.66
10 | Clc1ccc(Oc2cc(Cl)c(Cl)c(Cl)c2Cl)c(Cl)c1Cl | 7.28
11 | Clc1ccc(Oc2c(Cl)cc(Cl)cc2Cl)c(Cl)c1 | 6.11
12 | Clc1cc(Oc2ccc(Cl)c(Cl)c2Cl)cc(Cl)c1Cl | 6.99
13 | Clc1cc(Oc2cc(Cl)c(Cl)c(Cl)c2Cl)cc(Cl)c1Cl | 7.55
14 | Clc1cc(Oc2c(Cl)c(Cl)cc(Cl)c2Cl)c(Cl)c(Cl)c1Cl | 7.63
15 | Clc1ccc(Oc2ccccc2)cc1 | 4.7
16 | Clc1cc(Cl)c(Oc2cc(Cl)c(Cl)cc2Cl)cc1Cl | 6.72
17 | Clc1ccc(Oc2cccc(Cl)c2)cc1 | 5.13
18 | Clc1c(Cl)c(Cl)c(Oc2c(Cl)c(Cl)c(Cl)c(Cl)c2Cl)c(Cl)c1Cl | 8.16
19 | Clc1ccc(Oc2ccc(Cl)c(Cl)c2Cl)c(Cl)c1Cl | 6.82
20 | Clc1ccc(Oc2ccc(Cl)c(Cl)c2)cc1Cl | 6.36
21 | Clc1ccc(Oc2ccc(Cl)cc2Cl)cc1 | 5.53
22 | Clc1cccc(Oc2ccccc2)c1 | 4.75
23 | Clc1cc(Cl)c(Oc2cc(Cl)c(Cl)cc2Cl)c(Cl)c1 | 6.49
24 | Clc1cccc(Oc2ccccc2)c1Cl | 5
25 | Clc1ccc(Oc2c(Cl)cc(Cl)c(Cl)c2Cl)c(Cl)c1 | 6.84

Row | SMILES | logP
26 | Clc1cc(Cl)c(Oc2ccc(Cl)c(Cl)c2Cl)cc1Cl | 7.01
27 | Clc1cc(Cl)c(Oc2cc(Cl)c(Cl)c(Cl)c2Cl)cc1Cl | 7.46
28 | Clc1cc(Cl)cc(Oc2ccc(Cl)cc2Cl)c1 | 6.13
29 | Clc1ccc(Oc2cc(Cl)c(Cl)cc2Cl)c(Cl)c1 | 6.38
30 | Clc1cc(Oc2c(Cl)c(Cl)c(Cl)c(Cl)c2Cl)c(Cl)c(Cl)c1Cl | 8.07
31 | Clc1cc(Oc2c(Cl)ccc(Cl)c2Cl)c(Cl)c(Cl)c1Cl | 6.98
32 | Clc1ccc(Cl)c(Oc2ccccc2)c1 | 5.13
33 | Clc1ccc(Oc2ccccc2)c(Cl)c1 | 4.93
34 | Clc1cc(Cl)c(Cl)c(Oc2ccccc2)c1 | 5.62
35 | Clc1cc(Oc2ccccc2)cc(Cl)c1Cl | 5.7
36 | Clc1cc(Cl)c(Oc2cc(Cl)c(Cl)c(Cl)c2)cc1Cl | 7.11
37 | Clc1cc(Cl)cc(Oc2ccccc2)c1 | 5.21
38 | Clc1ccc(Oc2cc(Cl)cc(Cl)c2)cc1 | 5.77
39 | Clc1ccc(Oc2c(Cl)c(Cl)cc(Cl)c2Cl)c(Cl)c1Cl | 7.14
40 | Clc1ccc(Oc2cc(Cl)c(Cl)c(Cl)c2Cl)c(Cl)c1 | 6.72
41 | Clc1cc(Cl)c(Oc2c(Cl)c(Cl)c(Cl)c(Cl)c2Cl)cc1Cl | 7.81
42 | Clc1cc(Cl)c(Oc2cc(Cl)c(Cl)c(Cl)c2Cl)c(Cl)c1 | 7.31
43 | Clc1ccc(Cl)c(Oc2ccc(Cl)c(Cl)c2Cl)c1 | 6.51
44 | Clc1ccc(Oc2ccc(Cl)cc2)cc1 | 5.25
45 | Clc1ccc(Oc2cc(Cl)c(Cl)c(Cl)c2)c(Cl)c1 | 6.63
46 | Clc1ccc(Oc2ccc(Cl)c(Cl)c2Cl)c(Cl)c1 | 6.28
47 | Clc1cc(Oc2cc(Cl)c(Cl)c(Cl)c2Cl)c(Cl)c(Cl)c1Cl | 7.78
48 | Clc1ccc(Oc2c(Cl)c(Cl)cc(Cl)c2Cl)c(Cl)c1 | 6.76
49 | Clc1cc(Cl)c(Cl)c(Oc2ccc(Cl)c(Cl)c2Cl)c1 | 7.01
50 | Clc1cc(Cl)cc(Oc2ccc(Cl)c(Cl)c2Cl)c1 | 6.58

Now from value to molecule:

Row | logP | SMILES
51 | 6.44 | Clc1cc(Cl)c(Oc2ccc(Cl)c(Cl)c2)c(Cl)c1
52 | 5.99 | Clc1ccc(Oc2cc(Cl)c(Cl)cc2Cl)cc1
53 | 5.63 | Clc1ccc(Oc2cccc(Cl)c2Cl)cc1
54 | 5.32 | Clc1cc(Cl)c(Oc2ccccc2)c(Cl)c1
55 | 6.11 | Clc1ccc(Cl)c(Oc2ccc(Cl)c(Cl)c2)c1
56 | 5.35 | Clc1ccc(Cl)c(Oc2ccccc2)c1Cl
57 | 5.92 | Clc1ccc(Oc2c(Cl)cc(Cl)cc2Cl)cc1
58 | 6.52 | Clc1cc(Cl)c(Cl)c(Oc2ccc(Cl)c(Cl)c2)c1
59 | 6.3 | Clc1ccc(Oc2cc(Cl)c(Cl)c(Cl)c2)cc1
60 | 5.66 | Clc1ccc(Oc2cc(Cl)ccc2Cl)cc1
61 | 6.41 | Clc1ccc(Oc2c(Cl)c(Cl)cc(Cl)c2Cl)cc1
62 | 6.21 | Clc1ccc(Oc2cc(Cl)cc(Cl)c2Cl)cc1
63 | 5.99 | Clc1ccc(Oc2cccc(Cl)c2Cl)cc1Cl
64 | 5.97 | Clc1cc(Cl)c(Oc2ccccc2Cl)cc1Cl
65 | 6.07 | Clc1cccc(Oc2ccc(Cl)c(Cl)c2Cl)c1
66 | 5.88 | Clc1ccc(Oc2cccc(Cl)c2Cl)c(Cl)c1
67 | 6.83 | Clc1ccc(Oc2cc(Cl)c(Cl)c(Cl)c2)cc1Cl
68 | 5.65 | Clc1cccc(Oc2ccc(Cl)cc2Cl)c1
69 | 4.96 | Clc1ccc(Oc2ccccc2Cl)c(Cl)c1
70 | 6.06 | Clc1ccc(Oc2c(Cl)ccc(Cl)c2Cl)c(Cl)c1
71 | 6.47 | Clc1cc(Cl)c(Oc2c(Cl)ccc(Cl)c2Cl)cc1Cl
72 | 6.14 | Clc1ccc(Oc2ccc(Cl)c(Cl)c2Cl)cc1
73 | 6.31 | Clc1ccc(Oc2c(Cl)ccc(Cl)c2Cl)cc1Cl
74 | 5.95 | Clc1ccc(Oc2ccc(Cl)cc2Cl)c(Cl)c1
75 | 6.22 | Clc1cc(Cl)c(Oc2cccc(Cl)c2Cl)cc1Cl

Row | logP | SMILES
76 | 5.82 | Clc1cc(Cl)c(Cl)c(Oc2ccccc2)c1Cl
77 | 6.65 | Clc1ccc(Oc2c(Cl)ccc(Cl)c2Cl)c(Cl)c1Cl
78 | 6.22 | Clc1ccc(Cl)c(Oc2cc(Cl)c(Cl)cc2Cl)c1
79 | 5.3 | Clc1ccc(Oc2c(Cl)cccc2Cl)cc1
80 | 5.72 | Clc1ccccc1Oc1ccc(Cl)c(Cl)c1Cl
81 | 7.31 | Clc1ccc(Oc2c(Cl)c(Cl)c(Cl)c(Cl)c2Cl)cc1Cl
82 | 4.99 | Clc1ccc(Oc2ccccc2)cc1Cl
83 | 6.22 | Clc1cc(Cl)cc(Oc2ccc(Cl)c(Cl)c2)c1
84 | 6.13 | Clc1ccc(Oc2ccc(Cl)c(Cl)c2)c(Cl)c1
85 | 5.88 | Clc1ccc(Oc2ccc(Cl)c(Cl)c2)cc1
86 | 5.7 | Clc1ccc(Oc2c(Cl)cccc2Cl)cc1Cl
87 | 6.11 | Clc1ccc(Oc2c(Cl)cccc2Cl)c(Cl)c1Cl
88 | 5.88 | Clc1ccc(Oc2c(Cl)ccc(Cl)c2Cl)cc1
89 | 6.14 | Clc1cccc(Oc2cc(Cl)c(Cl)cc2Cl)c1
90 | 5.5 | Clc1ccc(Oc2ccccc2Cl)cc1Cl
91 | 6.6 | Clc1ccc(Oc2cc(Cl)c(Cl)cc2Cl)cc1Cl
92 | 5.74 | Clc1cccc(Oc2ccc(Cl)c(Cl)c2)c1
93 | 6.47 | Clc1ccc(Oc2c(Cl)cc(Cl)c(Cl)c2Cl)cc1
94 | 6.78 | Clc1ccc(Oc2c(Cl)c(Cl)cc(Cl)c2Cl)cc1Cl
95 | 7.07 | Clc1ccc(Oc2c(Cl)cc(Cl)c(Cl)c2Cl)cc1Cl
96 | 4.64 | Clc1cccc(Cl)c1Oc1ccccc1
97 | 5.78 | Clc1ccc(Oc2cc(Cl)ccc2Cl)c(Cl)c1
98 | 6.51 | Clc1ccc(Oc2ccc(Cl)c(Cl)c2Cl)cc1Cl
99 | 5.98 | Clc1cc(Cl)c(Oc2c(Cl)cccc2Cl)cc1Cl
100 | 6.3 | Clc1cccc(Oc2ccc(Cl)c(Cl)c2Cl)c1Cl

From the SangsterLogP compilation
